This is an account of results in paper PMC6093650, “Antidepressive and anxiolytic effects of ostruthin, a TREK-1 channel activator” (PLoS ONE, 2018).

In one data set the target is T1, HERG-3 (Homo sapiens, UniProt Q9NS40).
T1 construct: expressed in transfected cells; host or cells: 293T (transient, calcium-phosphate transfection)
T1 sequence (Q9NS40 1-1196): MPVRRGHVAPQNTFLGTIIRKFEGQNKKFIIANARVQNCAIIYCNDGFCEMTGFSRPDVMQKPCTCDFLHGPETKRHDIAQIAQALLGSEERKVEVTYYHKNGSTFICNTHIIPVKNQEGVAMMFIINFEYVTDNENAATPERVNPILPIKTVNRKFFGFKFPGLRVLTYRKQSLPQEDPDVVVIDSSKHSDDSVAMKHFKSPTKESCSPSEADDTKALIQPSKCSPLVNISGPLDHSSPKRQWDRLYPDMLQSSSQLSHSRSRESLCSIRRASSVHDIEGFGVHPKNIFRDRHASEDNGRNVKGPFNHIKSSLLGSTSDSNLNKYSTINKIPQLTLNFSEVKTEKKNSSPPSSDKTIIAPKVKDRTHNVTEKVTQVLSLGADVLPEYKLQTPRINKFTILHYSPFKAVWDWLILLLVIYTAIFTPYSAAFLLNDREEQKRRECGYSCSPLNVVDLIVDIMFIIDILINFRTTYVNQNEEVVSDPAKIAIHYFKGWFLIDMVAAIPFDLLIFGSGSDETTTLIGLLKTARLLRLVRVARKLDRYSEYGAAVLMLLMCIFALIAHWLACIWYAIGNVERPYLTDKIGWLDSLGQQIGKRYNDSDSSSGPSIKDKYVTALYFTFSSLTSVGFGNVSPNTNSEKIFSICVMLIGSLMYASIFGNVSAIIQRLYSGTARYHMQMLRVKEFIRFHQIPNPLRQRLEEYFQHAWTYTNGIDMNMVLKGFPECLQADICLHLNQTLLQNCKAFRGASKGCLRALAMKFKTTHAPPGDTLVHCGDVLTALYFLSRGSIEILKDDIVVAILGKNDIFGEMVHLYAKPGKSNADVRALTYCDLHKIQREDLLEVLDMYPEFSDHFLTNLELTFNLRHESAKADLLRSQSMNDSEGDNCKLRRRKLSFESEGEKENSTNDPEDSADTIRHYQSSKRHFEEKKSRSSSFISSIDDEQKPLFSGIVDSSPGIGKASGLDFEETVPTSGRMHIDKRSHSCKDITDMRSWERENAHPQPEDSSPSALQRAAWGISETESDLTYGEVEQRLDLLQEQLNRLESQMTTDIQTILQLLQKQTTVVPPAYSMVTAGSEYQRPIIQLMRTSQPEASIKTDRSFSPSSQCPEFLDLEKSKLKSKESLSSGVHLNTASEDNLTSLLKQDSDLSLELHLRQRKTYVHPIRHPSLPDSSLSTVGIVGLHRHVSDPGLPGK
The data set can be described thus: whole-cell patch-clamp of HERG-3 currents in 293T cells. It is filed as cell-based. Conditions: 100 μM (data not shown). The text has this: (§1) For recordings of K^+ channel currents, we prepared stable cell lines for TREK-1, TWIK-related acid-sensitive K^+ channel (TASK-1), strongly inwardly rectifying K^+ channel (Kir2.1), and human ether-a-go-go-related gene (HERG-1) channels and transiently expressed other channels in 293T cells using a calcium-phosphate transfection method. For the establishment of the stable lines, we used lentiviral vectors, and the preparation methods for the lentiviral vectors were described in our previous report. TR-1 cells, which stably expressed TREK-1 channel and were grown on a small cover glass (3 × 18 mm), were placed in a recording chamber with an internal volume of 200 μl. Whole-cell currents were recorded in Tyrode solution using an Axopatch 200B amplifier (Axon Instruments, Foster City, CA) at 25°C. Tyrode solution contained (in mM): NaCl 140, KCl 5.4, NaH2PO4 0.33, CaCl2 2, MgCl2 1, HEPES 5, and glucose 5.5 (pH 7.4 adjusted with NaOH). […] Perfusion (100 μl/min) was continued to maintain the water level throughout recordings. pH and osmotic pressure of solutions were measured with a pH meter (Horiba, Kyoto, Japan) and a freezing point osmometer (Knauer, Berlin, Germany), respectively. […]

Another data set has as its target T2, Kir2.1 (Homo sapiens, UniProt P63252).
T2 construct: expressed in transfected cells
T2 sequence (P63252 1-427): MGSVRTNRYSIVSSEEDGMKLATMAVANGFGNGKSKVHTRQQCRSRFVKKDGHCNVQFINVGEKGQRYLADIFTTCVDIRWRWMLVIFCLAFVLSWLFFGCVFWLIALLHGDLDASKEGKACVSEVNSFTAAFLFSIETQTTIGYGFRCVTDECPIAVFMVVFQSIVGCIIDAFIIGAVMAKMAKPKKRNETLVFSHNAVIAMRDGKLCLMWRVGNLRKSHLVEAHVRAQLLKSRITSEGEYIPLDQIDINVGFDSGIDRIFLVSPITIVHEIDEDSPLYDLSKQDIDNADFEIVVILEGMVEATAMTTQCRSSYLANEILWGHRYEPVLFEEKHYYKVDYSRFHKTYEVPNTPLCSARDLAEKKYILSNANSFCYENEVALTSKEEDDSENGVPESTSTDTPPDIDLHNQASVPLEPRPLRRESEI
Briefly: whole-cell patch-clamp of Kir2.1 currents in 293T cells. The format is cell-based. As to conditions: n = 5, read-out: IC50 Kir 2.1.
Source text: as §1

As for `CC(C)=CCC/C(C)=C/Cc1cc2ccc(=O)oc2cc1O` [ostruthin], the “effect on HERG-3 channels” value on HERG-3 is “no effect”. The IC50 on Kir2.1 was 198 µM.
